The assay can be described thus: Compound was evaluated for the inhibition of serum-opsonized zymosan stimulated myeloperoxidase release from human neutrophil.

SMILES strings stand for the structures. pIC50: −log10 of the molar value.

What is called pIC50 is the negative decadic logarithm of the IC50, by convention in mol/L. Turning to `COc1ccc2sc(C(=O)Nc3nnn[nH]3)c(OC(C)C)c2c1`, the negative-log IC50 (pIC50) is 5.12.

Source of the values: BindingDB's records for doi:10.1021/jm00083a023 (Warner-Lambert, 1992).
